Laboratory results as given in US5955607A, “Sulfonamide-substituted chromans, processes for their preparation, their use as a medicament or diagnostic, and pharmaceutical preparations comprising them” (priority 1997, dated 1999).
Structures can show the parent of a compound that is named as a salt.

biological target: T1, human IsK protein (UniProt P15382+P70057); assay: cell-based; conditions: human IsK expressed in Xenopus oocytes, -10 mV voltage jumps lasting 15 s, room temperature, pH 7.5; Hill equation
T1 construct: channel formed with endogenous oocyte KCNQ1; two-microelectrode voltage clamp
T1 sequence (P70057 whole entry): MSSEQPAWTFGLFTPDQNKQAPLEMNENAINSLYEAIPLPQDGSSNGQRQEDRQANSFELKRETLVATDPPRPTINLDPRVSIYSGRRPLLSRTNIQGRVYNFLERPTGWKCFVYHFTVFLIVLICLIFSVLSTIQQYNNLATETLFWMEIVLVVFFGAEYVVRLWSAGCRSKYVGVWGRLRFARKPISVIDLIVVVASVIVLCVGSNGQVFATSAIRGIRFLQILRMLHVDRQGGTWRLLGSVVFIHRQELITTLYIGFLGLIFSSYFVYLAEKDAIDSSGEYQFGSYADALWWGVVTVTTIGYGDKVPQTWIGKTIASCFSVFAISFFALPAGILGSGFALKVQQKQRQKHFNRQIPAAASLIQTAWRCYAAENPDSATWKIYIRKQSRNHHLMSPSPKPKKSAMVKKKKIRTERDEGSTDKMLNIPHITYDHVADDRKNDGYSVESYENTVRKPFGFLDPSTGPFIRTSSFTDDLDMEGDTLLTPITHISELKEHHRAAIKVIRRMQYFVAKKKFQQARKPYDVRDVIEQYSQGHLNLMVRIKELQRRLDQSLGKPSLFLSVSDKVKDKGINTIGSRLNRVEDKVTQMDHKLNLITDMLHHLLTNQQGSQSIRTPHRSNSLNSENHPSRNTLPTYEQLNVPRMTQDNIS

Row | SMILES | IC50 [nM]
1 | Cc1ccc2c(c1)C(N(CCCCC(=O)OCCN(C)Cc1ccccc1)S(C)(=O)=O)CC(C)(C)O2 (stereo not shown) [Example 10, 2-(Benzylmethylamino)ethyl 5-[methanesulfonyl-(2,2,6-trimethylchroman-4-yl)amino]pentanoate] | 790
2 | CCCCOc1ccc2c(c1)C(N(CCCOC(=O)NCCN1CCOCC1)S(C)(=O)=O)CC(C)(C)O2 (stereo not shown) [Example 47, 3-[(6-Butoxy-2,2-dimethylchroman-4-yl)methanesulfonylamino]propyl (^2-morpholin-4-yl-ethyl)carbamate] | 750
3 | CCS(=O)(=O)N(CC(=O)NCCc1ccccc1)C1CC(C)(C)Oc2ccc(F)cc21 (stereo not shown) [Example 21, 2-[Ethanesulfonyl-(6-fluoro-2,2-dimethylchroman-4-yl)amino]-N-phenethylacetamide] | 46
4 | CCS(=O)(=O)N(CC(=O)Nc1ccncc1)C1CC(C)(C)Oc2ccc(F)cc21 (stereo not shown) [Example 22, 2-[Ethanesulfonyl-(6-fluoro-2,2-dimethylchroman-4-yl)amino]-N-pyridin-4-ylacetamide] | 670
5 | CCCCOc1ccc2c(c1)C(N(CCCOCCO)S(C)(=O)=O)CC(C)(C)O2 (stereo not shown) [Example 45, N-(6-Butoxy-2,2-dimethylchroman-4-yl)-N-[3-(2-hydroxyethoxy)propyl]methanesulfonamide] | 450
6 | CCCCOc1ccc2c(c1)C(N(CCOCC(=O)O)S(C)(=O)=O)CC(C)(C)O2 (stereo not shown) [Example 43, {2-[(6-Butoxy-2,2-dimethylchroman-4-yl)methanesulfonylamino]ethoxy}acetic acid] | 7800
7 | CC1(C)CC(N(CCCCOCC(=O)O)S(C)(=O)=O)c2cc(OCc3ccccc3)ccc2O1 (stereo not shown) [Example 34, {4-[(6-Benzyloxy-2,2-dimethylchroman-4-yl)methanesulfonylamino]butoxy}acetic acid] | ~700
8 | CCCCOc1ccc2c(c1)C(N(CC(=O)NC(=N)N)S(C)(=O)=O)CC(C)(C)O2 (stereo not shown) [Example 56, N-(6-Butoxy-2,2-dimethylchroman-4-yl)-N-(2-guanidino-2-oxoethyl)methanesulfonamide] | 3400
9 | CCS(=O)(=O)N(CC(=O)NCCc1ccccn1)C1CC(C)(C)Oc2ccc(F)cc21 (stereo not shown) [Example 9, 2-[Ethylsulfonyl-(6-fluoro-2,2-dimethylchroman-4-yl)amino]-N-(2-pyridin-2-ylethyl)acetamide] | 1600
10 | CC1(C)CC(N(CC(=O)NCCc2ccccn2)S(C)(=O)=O)c2cc(OCc3ccccc3)ccc2O1 (stereo not shown) [Example 17, 2-[(6-Benzyloxy-2,2-dimethylchroman-4-yl)methanesulfonylamino]-N-(2-pyridin-2-yl-ethyl)acetamide] | < 1000
11 | CCOCCOCCOC(=O)CN(C1CC(CC)(CC)Oc2ccc(C)cc21)S(=O)(=O)CC (stereo not shown) [Example 4, 2-(2-Ethoxyethoxy)ethyl [(2,2-diethyl-6-methylchroman-4-yl)-ethylsulfonylamino]acetate] | 1000
12 | CCCCOc1ccc2c(c1)C(N(CCOCCOC)S(C)(=O)=O)CC(C)(C)O2 (stereo not shown) [Example 42, N-(6-Butoxy-2,2-dimethylchroman-4-yl)-N-[2-(2-methoxyethoxy)ethyl]methanesulfonamide] | 340
13 | CCS(=O)(=O)N(CC(=O)Nc1cccnc1)C1CC(C)(C)Oc2ccc(F)cc21 (stereo not shown) [Example 23, 2-[Ethanesulfonyl-(6-fluoro-2,2-dimethylchroman-4-yl)-amino]N-pyridin-3-ylacetamide] | 550
14 | CCS(=O)(=O)N(CC(=O)Nc1ccccn1)C1CC(C)(C)Oc2ccc(F)cc21 (stereo not shown) [Example 14, 2-[(6-Fluoro-2,2-dimethylchroman-4-yl)ethanesulfonylamino]-N-pyridin-2-ylacetamide] | 180

The next lines start with the values.

Row | IC50 [nM] | SMILES
15 | 1420 | COCCOCCN(C1CC(C)(C)Oc2ccc(OCc3ccccc3)cc21)S(C)(=O)=O (stereo not shown) [Example 38, N-(6-Benzyloxy-2,2-dimethylchroman-4-yl)-N-[2-(2-methoxyethoxy)ethyl]methanesulfonamide]
16 | 280 | CCOC(=O)CN(C)C(=O)CCCN(C1CC(C)(C)Oc2ccc(OCc3ccccc3)cc21)S(C)(=O)=O (stereo not shown) [Example 31, Ethyl ({4-[(6-benzyloxy-2,2-dimethylchroman-4-yl)methanesulfonylamino]butyryl}methylamino)acetate]
17 | 830 | CCS(=O)(=O)N(CC(=O)Nc1nc[nH]n1)C1CC(C)(C)Oc2ccc(F)cc21 (stereo not shown) [Example 54, 2-[Ethanesulfonyl-(6-fluoro-2,2-dimethylchroman-4-yl)amino]-N-(1H-[1,2,4]triazol-3-yl)acetamide]
18 | 250 | CCOC(=O)CN(C)C(=O)CN(C1CC(C)(C)Oc2ccc(OCc3ccccc3)cc21)S(C)(=O)=O (stereo not shown) [Example 32, Ethyl ({2-[(6-benzyloxy-2,2-dimethylchroman-4-yl)methanesulfonylamino]acetyl}methylamino)acetate]
19 | 1000 | CCS(=O)(=O)N(CC(=O)Nc1ncccn1)C1CC(C)(C)Oc2ccc(F)cc21 (stereo not shown) [Example 24, 2-[Ethanesulfonyl-(6-fluoro-2,2-dimethylchroman-4-yl)amino]-N-pyrimidin-2-ylacetamide]
20 | 470 | CCCCNC(=O)CCCN(C1CC(C)(C)Oc2ccc(OCc3ccccc3)cc21)S(C)(=O)=O (stereo not shown) [Example 28, 4-[(6-Benzyloxy-2,2-dimethylchroman-4-yl)methanesulfonylamino]-N-butylbutyramide]
21 | < 1000 | CCS(=O)(=O)N(CC(=O)Nc1nc2ccccc2[nH]1)C1CC(C)(C)Oc2ccc(F)cc21 (stereo not shown) [Example 61, N-(1H-Benzoimidazol-2-yl)-2-[ethanesulfonyl-(6-fluoro-2,2-dimethyl-chroman-4-yl)-amino]-acetamide]
22 | 83 | CCS(=O)(=O)N(CC(=O)OCCN(C)Cc1ccccc1)C1CC(C)(C)Oc2ccc(F)cc21 (stereo not shown) [Example 49, 2-(Benzylmethylamino)ethyl [ethanesulfonyl-(6-fluoro-2,2-dimethylchroman-4-yl)amino]acetate]
23 | < 1000 | COCCOCCCCN(C1CC(C)(C)Oc2ccc(OCc3ccccc3)cc21)S(C)(=O)=O (stereo not shown) [Example 29, N-(6-Benzyloxy-2,2-dimethylchroman-4-yl)-N-[4-(2-methoxyethoxy)butyl]methanesulfonamide]
24 | 500 | CC1(C)Oc2ccc(Cl)cc2[C@@H](N(CC(=O)NCCc2ccccc2)S(C)(=O)=O)[C@@H]1O (relative stereo) [Example 58, 2-[(6-Chloro-3-hydroxy-2,2-dimethylchroman-4-yl)methanesulfonylamino]-N-phenethylacetamide]
25 | 450 | CCS(=O)(=O)N(CC(=O)Nc1cnccn1)C1CC(C)(C)Oc2ccc(F)cc21 (stereo not shown) [Example 25, 2-[Ethanesulfonyl-(6-fluoro-2,2-dimethylchroman-4-yl)amino]-N-pyrazin-2-ylacetamide]
26 | 310 | CN(CCc1ccccc1)C(=O)CN(C1CC(C)(C)Oc2ccc(OCc3ccccc3)cc21)S(C)(=O)=O (stereo not shown) [Example 39, 2-[(6-Benzyloxy-2,2-dimethylchroman-4-yl)methanesulfonylamino]-N-methyl-N-phenethylacetamide]
27 | 2100 | CCS(=O)(=O)N(CC(=O)Nc1nc2ccccc2n1C)C1CC(C)(C)Oc2ccc(F)cc21 (stereo not shown) [Example 27, 2-[Ethanesulfonyl-(6-fluoro-2,2-dimethylchroman-4-yl)amino]-N-(1-methyl-1H-benzoimidazol-2-yl)acetamide]
28 | 350 | CN(CCc1ccccn1)C(=O)CN(C1CC(C)(C)Oc2ccc(OCc3ccccc3)cc21)S(C)(=O)=O (stereo not shown) [Example 40, 2-[(6-Benzyloxy-2,2-dimethylchroman-4-yl)methanesulfonylamino]-N-methyl-N-(2-pyridin-2-yl-ethyl)acetamide hydrochloride]
29 | < 1000 | CCS(=O)(=O)N(CC(=O)NCCN(C)Cc1ccccc1)C1CC(C)(C)Oc2ccc(F)cc21 (stereo not shown) [Example 62, N-[2-(Benzyl-methyl-amino)-ethyl]-2-[ethanesulfonyl-(6-fluoro-2,2-dimethyl-chroman-4-yl)-amino]-acetamide]

system: IKr; assay: not given; conditions: known class III antiarrhythmics; cited from earlier work

Row | SMILES | block of IKr
30 | CC(C)NC[C@@H](O)c1ccc(NS(C)(=O)=O)cc1 [d-sotalol] | mainly or exclusively block IKr

system: K^+ (ATP) channel; assay: not given; conditions: cromakalim (formula A) and analogous acylamino compounds; cited from earlier work

Row | SMILES | action on ATP-sensitive K^+ channels
31 | CC1(C)Oc2ccc(C#N)cc2[C@@H](N2CCCC2=O)[C@@H]1O (relative stereo) [cromakalim] | act as openers of ATP-sensitive K^+ channels
